Laboratory results published in patent US9212182B2, “Bicyclic sulfonamide compounds as sodium channel inhibitors” (AMGEN INC., priority 2013, dated 2015).
Where two headings read alike, the source gives them in different places.

Target: Nav 1.7 (Homo sapiens (Human), UniProt Q15858)
Experiment: in-vitro Nav 1.7 PX (IC50)
Format: cell-based

Chain of Nav 1.7 (Q15858 whole entry): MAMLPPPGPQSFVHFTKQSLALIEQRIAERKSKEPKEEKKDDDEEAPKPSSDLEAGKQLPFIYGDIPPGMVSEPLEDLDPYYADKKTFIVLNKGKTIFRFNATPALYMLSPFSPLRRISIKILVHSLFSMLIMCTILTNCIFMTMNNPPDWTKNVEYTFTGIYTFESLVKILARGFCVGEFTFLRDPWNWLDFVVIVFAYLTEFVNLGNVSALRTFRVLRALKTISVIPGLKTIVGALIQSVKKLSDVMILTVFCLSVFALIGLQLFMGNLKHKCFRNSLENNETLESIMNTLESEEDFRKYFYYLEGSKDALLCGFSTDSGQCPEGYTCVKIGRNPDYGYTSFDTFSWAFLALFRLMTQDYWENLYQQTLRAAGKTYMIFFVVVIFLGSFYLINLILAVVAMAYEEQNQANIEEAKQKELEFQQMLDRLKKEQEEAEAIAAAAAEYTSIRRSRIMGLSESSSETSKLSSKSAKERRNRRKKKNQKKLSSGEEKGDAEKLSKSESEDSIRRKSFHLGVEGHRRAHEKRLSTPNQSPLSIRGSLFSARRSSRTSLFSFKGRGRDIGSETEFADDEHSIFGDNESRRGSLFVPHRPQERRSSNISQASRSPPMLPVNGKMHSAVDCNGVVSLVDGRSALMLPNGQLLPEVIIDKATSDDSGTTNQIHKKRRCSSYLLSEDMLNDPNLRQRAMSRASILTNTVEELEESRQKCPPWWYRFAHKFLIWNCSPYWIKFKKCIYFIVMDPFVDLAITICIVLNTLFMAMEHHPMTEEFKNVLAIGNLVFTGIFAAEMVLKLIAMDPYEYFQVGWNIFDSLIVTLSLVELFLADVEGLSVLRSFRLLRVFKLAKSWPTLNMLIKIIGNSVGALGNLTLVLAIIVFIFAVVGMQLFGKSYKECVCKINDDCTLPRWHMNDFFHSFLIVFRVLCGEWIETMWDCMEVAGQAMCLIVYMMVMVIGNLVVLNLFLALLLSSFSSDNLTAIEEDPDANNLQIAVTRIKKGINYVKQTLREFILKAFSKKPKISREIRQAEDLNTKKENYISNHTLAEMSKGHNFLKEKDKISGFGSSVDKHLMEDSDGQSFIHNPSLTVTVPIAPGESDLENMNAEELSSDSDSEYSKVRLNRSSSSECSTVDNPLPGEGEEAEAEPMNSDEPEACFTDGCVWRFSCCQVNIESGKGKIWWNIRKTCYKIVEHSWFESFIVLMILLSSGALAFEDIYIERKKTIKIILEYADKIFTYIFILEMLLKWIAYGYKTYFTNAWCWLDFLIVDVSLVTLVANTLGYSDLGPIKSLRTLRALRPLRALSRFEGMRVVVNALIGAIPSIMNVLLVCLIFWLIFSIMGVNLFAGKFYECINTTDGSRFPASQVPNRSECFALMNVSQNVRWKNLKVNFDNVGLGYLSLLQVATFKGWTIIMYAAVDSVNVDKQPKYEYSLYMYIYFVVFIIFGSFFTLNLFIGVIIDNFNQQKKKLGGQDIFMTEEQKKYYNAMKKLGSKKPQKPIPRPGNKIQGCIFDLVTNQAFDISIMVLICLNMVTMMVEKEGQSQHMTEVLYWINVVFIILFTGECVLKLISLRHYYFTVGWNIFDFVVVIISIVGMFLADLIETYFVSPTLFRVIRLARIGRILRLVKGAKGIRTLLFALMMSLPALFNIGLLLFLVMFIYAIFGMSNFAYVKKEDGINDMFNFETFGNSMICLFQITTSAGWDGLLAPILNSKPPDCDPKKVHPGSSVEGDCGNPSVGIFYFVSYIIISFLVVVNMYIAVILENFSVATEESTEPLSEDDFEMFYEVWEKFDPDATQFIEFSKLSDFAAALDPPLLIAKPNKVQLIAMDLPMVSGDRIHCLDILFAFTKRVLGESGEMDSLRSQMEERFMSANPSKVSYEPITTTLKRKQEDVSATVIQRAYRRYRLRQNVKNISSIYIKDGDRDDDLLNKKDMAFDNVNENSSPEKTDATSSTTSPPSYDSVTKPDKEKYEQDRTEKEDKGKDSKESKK

Structure (SMILES) | IC50 [µM] | further results
COc1cc(-c2cccc(C)c2)c(F)cc1-n1c(=O)ccc2cc(S(=O)(=O)Nc3ccon3)ccc21 (atropisomer, axis not shown; (P)) [Example 522, (P)-1-(2-fluoro-5-methoxy-3′-methyl-4-biphenylyl)-N-3-isoxazolyl-2-oxo-1,2-dihydro-6-quinolinesulfonamide] |  | IC50 (in-vitro PatchXpress (PX)): 0.009 µM
COc1cc(-c2ccc(C)c(C#N)c2)c(F)cc1-n1c(=O)ccc2cc(S(=O)(=O)Nc3ccon3)ccc21 (atropisomer, axis not shown; (P)) [Example 524, (P)-1-(3′-cyano-2-fluoro-5-methoxy-4′-methyl-4-biphenylyl)-N-3-isoxazolyl-2-oxo-1,2-dihydro-6-quinolinesulfonamide] |  | IC50 (in-vitro PatchXpress (PX)): 0.025 µM
COc1cc(-c2cc(C)cc(C#N)c2)c(F)cc1-n1c(=O)ccc2cc(S(=O)(=O)Nc3ccon3)ccc21 (atropisomer, axis not shown; (P)) [Example 526, (P)-1-(3′-cyano-2-fluoro-5-methoxy-5′-methyl-4-biphenylyl)-N-3-isoxazolyl-2-oxo-1,2-dihydro-6-quinolinesulfonamide] |  | IC50 (in-vitro PatchXpress (PX)): 0.031 µM
COc1cc(-c2ccc(C)c(Cl)c2)c(F)cc1-n1c(=O)ccc2cc(S(=O)(=O)Nc3ccon3)ccc21 (atropisomer, axis not shown; (P)) [Example 528, (P)-1-(3′-chloro-2-fluoro-5-methoxy-4′-methyl-4-biphenylyl)-N-3-isoxazolyl-2-oxo-1,2-dihydro-6-quinolinesulfonamide] |  | IC50 (in-vitro PatchXpress (PX)): 0.007 µM
COc1cc(-c2cc(F)cc(Cl)c2)c(F)cc1-n1c(=O)ccc2cc(S(=O)(=O)Nc3ncccn3)ccc21 (atropisomer, axis not shown; (P)) [Example 541, (P)-1-(3′-chloro-2,5′-difluoro-5-methoxy-4-biphenylyl)-2-oxo-N-2-pyrimidinyl-1,2-dihydro-6-quinolinesulfonamide] | 0.018 | 
COc1cc(-c2cc(F)cc(Cl)c2)c(F)cc1-n1c(=O)ccc2cc(S(=O)(=O)Nc3cccnn3)ccc21 (atropisomer, axis not shown; (P)) [Example 542, (P)-1-(3′-chloro-2,5′-difluoro-5-methoxy-4-biphenylyl)-2-oxo-N-3-pyridazinyl-1,2-dihydro-6-quinolinesulfonamide] | 0.007 | 
COc1cc(-c2cc(F)cc(Cl)c2)c(F)cc1-n1c(=O)ccc2cc(S(=O)(=O)Nc3cnccn3)ccc21 (atropisomer, axis not shown; (P)) [Example 543, (P)-1-(3′-chloro-2,5′-difluoro-5-methoxy-4-biphenylyl)-2-oxo-N-2-pyrazinyl-1,2-dihydro-6-quinolinesulfonamide] | 0.013 | 
COc1cc(-c2cc(F)cc(Cl)c2)c(F)cc1-n1c(=O)ccc2cc(S(=O)(=O)Nc3ncc(F)cn3)ccc21 (atropisomer, axis not shown; (P)) [Example 544, (P)-1-(3′-chloro-2,5′-difluoro-5-methoxy-4-biphenylyl)-N-(5-fluoro-2-pyrimidinyl)-2-oxo-1,2-dihydro-6-quinolinesulfonamide] | 0.014 | 
COc1cc(-c2cccc(F)c2)c(Cl)cc1-n1c(=O)ccc2cc(S(=O)(=O)Nc3ccon3)c(F)cc21 (atropisomer, axis not shown; (P)) [Example 545, (P)-1-(2-chloro-3′-fluoro-5-methoxy-4-biphenylyl)-7-fluoro-N-3-isoxazolyl-2-oxo-1,2-dihydro-6-quinolinesulfonamide] | 0.01 | 
COc1cc(-c2cccc(F)c2)c(C)cc1-n1c(=O)cc(C)c2cc(S(=O)(=O)Nc3ccon3)ccc21 (atropisomer, axis not shown; (P)) [Example 568, (P)-1-(3′-fluoro-5-methoxy-2-methyl-4-biphenylyl)-N-3-isoxazolyl-4-methyl-2-oxo-1,2-dihydro-6-quinolinesulfonamide] | 0.092 | 
COc1cc(-c2cc(F)cc(F)c2)c(C)cc1-n1c(=O)cc(C)c2cc(S(=O)(=O)Nc3ccon3)ccc21 (atropisomer, axis not shown; (P)) [Example 570, (P)-1-(3′,5′-difluoro-5-methoxy-2-methyl-4-biphenylyl)-N-3-isoxazolyl-4-methyl-2-oxo-1,2-dihydro-6-quinolinesulfonamide] | 0.067 | 
COc1cc(-c2cccc(F)c2)c(F)cc1-n1c(=O)cc(C)c2cc(S(=O)(=O)Nc3ccon3)ccc21 (atropisomer, axis not shown; (P)) [Example 572, (P)-1-(2,3′-difluoro-5-methoxy-4-biphenylyl)-N-3-isoxazolyl-4-methyl-2-oxo-1,2-dihydro-6-quinolinesulfonamide] | 0.485 | 
COc1cc(Br)ccc1-n1c(=O)ccc2cc(S(=O)(=O)Nc3ccon3)ccc21 (atropisomer, axis not shown; (P)) [Example 574, (P)-1-(4-bromo-2-methoxyphenyl)-N-3-isoxazolyl-2-oxo-1,2-dihydro-6-quinolinesulfonamide] | 0.772 | 
COc1cc(-c2ccc(C)c(F)c2)ccc1-n1c(=O)ccc2cc(S(=O)(=O)Nc3ccon3)ccc21 (atropisomer, axis not shown; (P)) [Example 576, (P)-1-(3′-fluoro-3-methoxy-4′-methyl-4-biphenylyl)-N-3-isoxazolyl-2-oxo-1,2-dihydro-6-quinolinesulfonamide] | 0.04 | 
COc1cc(-c2cccc(F)c2)ncc1-n1c(=O)ccc2cc(S(=O)(=O)Nc3ccon3)ccc21 (atropisomer, axis not shown; (P)) [Example 602, (P)-1-(6-(3-fluorophenyl)-4-methoxy-3-pyridinyl)-N-3-isoxazolyl-2-oxo-1,2-dihydro-6-quinolinesulfonamide] |  | IC50 (in-vitro Nav 1.7 PX data): 0.709 µM
COc1ccc(-c2cccc(F)c2)cc1-n1c(=O)ccc2cc(S(=O)(=O)Nc3ncccn3)ccc21 (atropisomer, axis not shown; (P)) [Example 606, (P)-1-(3′-fluoro-4-methoxy-3-biphenylyl)-2-oxo-N-2-pyrimidinyl-1,2-dihydro-6-quinolinesulfonamide] |  | IC50 (in-vitro Nav 1.7 PX data): 0.159 µM
COc1cc(Cl)c(-c2cccc(F)c2)cc1-n1c(=O)ccc2cc(S(=O)(=O)Nc3ccon3)ccc21 (atropisomer, axis not shown; (P)) [Example 608, (P)-1-(6-chloro-3′-fluoro-4-methoxy-3-biphenylyl)-N-3-isoxazolyl-2-oxo-1,2-dihydro-6-quinolinesulfonamide] |  | IC50 (in-vitro Nav 1.7 PX data): 0.012 µM
COc1ccc(-c2cc(F)cc(Cl)c2)cc1-n1c(=O)ccc2cc(S(=O)(=O)Nc3ccncn3)ccc21 (atropisomer, axis not shown; (P)) [Example 611, (P)-1-(3′-chloro-5′-fluoro-4-methoxy-3-biphenylyl)-2-oxo-N-4-pyrimidinyl-1,2-dihydro-6-quinolinesulfonamide] |  | IC50 (in-vitro Nav 1.7 PX data): 0.029 µM
COc1cc(Cl)c(-c2cc(F)cc(Cl)c2)cc1-n1c(=O)ccc2cc(S(=O)(=O)Nc3ccon3)ccc21 (atropisomer, axis not shown; (P)) [Example 614, (P)-1-(3′,6-dichloro-5′-fluoro-4-methoxy-3-biphenylyl)-N-3-isoxazolyl-2-oxo-1,2-dihydro-6-quinolinesulfonamide] |  | IC50 (in-vitro Nav 1.7 PX data): 0.009 µM
O=c1ccc2cc(S(=O)(=O)Nc3ccon3)ccc2n1-c1ccc(-c2cc(F)cc(F)c2)cc1C1CC1 (atropisomer, axis not shown; (P)) [Example 629, (P)-1-(3-cyclopropyl-3′,5′-difluoro-4-biphenylyl)-N-3-isoxazolyl-2-oxo-1,2-dihydro-6-quinolinesulfonamide] |  | IC50 (in-vitro Nav 1.7 PX data (PatchXpress)): 0.127 µM
COc1cc(-c2ccc(Cl)cc2)c(F)cc1-n1c(=O)ccc2cc(S(=O)(=O)Nc3ccon3)ccc21 (atropisomer, axis not shown; (P)) [Example 633, (P)-1-(4′-chloro-2-fluoro-5-methoxy-4-biphenylyl)-N-3-isoxazolyl-2-oxo-1,2-dihydro-6-quinolinesulfonamide] |  | IC50 (in-vitro Nav 1.7 PX data): 0.007 µM
COc1cc(-c2ccc(C(F)(F)F)cc2)c(F)cc1-n1c(=O)ccc2cc(S(=O)(=O)Nc3ncco3)ccc21 (atropisomer, axis not shown; (P)) [Example 636, (P)-1-(2-fluoro-5-methoxy-4′-(trifluoromethyl)-4-biphenylyl)-N-1,3-oxazol-2-yl-2-oxo-1,2-dihydro-6-quinolinesulfonamide] | 0.031 | 
Cc1cc(-c2cc(C)c(-n3c(=O)ccc4cc(S(=O)(=O)Nc5ncccn5)ccc43)cc2F)ccc1Cl (atropisomer, axis not shown; (P)) [Example 649] |  | IC50 (in-vitro Nav 1.7 PX data): 0.049 µM

Continued, in another order:

IC50 [µM] | Structure (SMILES) | further results
0.016 | COc1cc(-c2ccc(F)c(Cl)c2)ccc1-n1c(=O)ccc2cc(S(=O)(=O)Nc3ccon3)ccc21 (atropisomer, axis not shown; (P)) [Example 578, (P)-1-(3′-chloro-4′-fluoro-3-methoxy-4-biphenylyl)-N-3-isoxazolyl-2-oxo-1,2-dihydro-6-quinolinesulfonamide] | 
0.011 | COc1cc(-c2ccc(Cl)c(F)c2)ccc1-n1c(=O)ccc2cc(S(=O)(=O)Nc3ccon3)ccc21 (atropisomer, axis not shown; (P)) [Example 580, (P)-1-(4′-chloro-3′-fluoro-3-methoxy-4-biphenylyl)-N-3-isoxazolyl-2-oxo-1,2-dihydro-6-quinolinesulfonamide] | 
0.013 | COc1cc(-c2cccc(C)c2)ccc1-n1c(=O)ccc2cc(S(=O)(=O)Nc3ccon3)ccc21 (atropisomer, axis not shown; (P)) [Example 584, (P)-N-3-isoxazolyl-1-(3-methoxy-3′-methyl-4-biphenylyl)-2-oxo-1,2-dihydro-6-quinolinesulfonamide] | 
0.008 | COc1cc(-c2cc(C)cc(Cl)c2)ccc1-n1c(=O)ccc2cc(S(=O)(=O)Nc3ccon3)ccc21 (atropisomer, axis not shown; (P)) [Example 585, (P)-1-(3′-chloro-3-methoxy-5′-methyl-4-biphenylyl)-N-3-isoxazolyl-2-oxo-1,2-dihydro-6-quinolinesulfonamide] | 
0.02 | COc1cc(-c2ccc(C)c(Cl)c2)ccc1-n1c(=O)ccc2cc(S(=O)(=O)Nc3ccon3)ccc21 (atropisomer, axis not shown; (P)) [Example 587, (P)-1-(3′-chloro-3-methoxy-4′-methyl-4-biphenylyl)-N-3-isoxazolyl-2-oxo-1,2-dihydro-6-quinolinesulfonamide] | 
